This note sets out measurements from PubChem BioAssay AID743141 (Broad Institute, 2013).

Activity calls are given as the source filed them.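 The calls were made as follows: active = compounds that cut viability of the normal-p53 cell line panel with an IC50 under 10 µM; inactive = IC50 above 10 µM.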

What all share (experiment): cell killing across TP53 wild-type lines, dose response, selectivity assay for cell-selective anticancer agent project, TP53 wild-type panel, dry powder (AID 743141)
Assay [1] deals with A549 viability, CellTiter-Glo luminescence, 48 h.
Assay [2] relates to HCT116 viability, CellTiter-Glo luminescence, 48 h.
In assay [3] the test system is IMR90 viability, CellTiter-Glo luminescence, 48 h.

On to `C[C@@H]1CC(=O)NN=C1c1ccc(N2CCOCC2)cc1`, for which the IC50 in assay [1] is > 10 µM (inactive); in assay [2], more than 10 µM; in assay [3] it was more than 10 µM.
Regarding `C[C@@H]1CC(=O)NN=C1c1ccc(N2CCOCC2)c(F)c1`, the values for the IC50 in assay [1], in assay [2] and in assay [3] were > 10 µM (inactive), more than 10 µM and more than 10 µM, respectively.
For the molecule `CC(=O)Nc1ccc(C2=NNC(=O)C[C@H]2C)cc1`, the IC50 in assay [1] is > 10 µM (inactive); in assay [2], more than 10 µM; in assay [3] it was more than 10 µM.
In the case of `C[C@@H]1CC(=O)NN=C1c1ccc(C2CCCCC2)cc1`, the IC50 is > 10 µM (inactive) in assay [1], more than 10 µM in assay [2] and more than 10 µM in assay [3].
For `C[C@@H]1CC(=O)NN=C1c1ccc(F)c(F)c1`, the IC50 in assay [1] is > 10 µM (inactive); in assay [2], more than 10 µM; in assay [3], more than 10 µM.
As for `COc1cc2c(cc1OC)-c1cc(=Nc3c(C)cc(C)cc3C)n(C)c(=O)n1CC2`, the IC50 in assay [1] is > 10 µM (inactive); in assay [2], more than 10 µM; in assay [3], more than 10 µM.
As for `C[C@H]1CC(=O)NN=C1c1ccc(N2CCOCC2)c(F)c1`, the IC50 in assay [1] is > 10 µM (inactive); in assay [2] it was more than 10 µM; in assay [3] it was more than 10 µM.
Turning to `C[C@@H]1CC(=O)NN=C1c1ccc(Cl)cc1`, the IC50 was > 10 µM (inactive) in assay [1], more than 10 µM in assay [2] and more than 10 µM in assay [3].
As for `CCN(CC)c1ccc(C2=NNC(=O)CC2C)cc1[N+](=O)[O-]` (stereo unspecified), the figures for the IC50 in assay [1], in assay [2] and in assay [3] were > 10 µM (inactive), more than 10 µM and more than 10 µM, respectively.
Turning to `O=C1CN2Cc3c(ccc(Cl)c3Cl)N=C2N1`, the IC50 was > 10 µM (inactive) in assay [1], more than 10 µM in assay [2] and more than 10 µM in assay [3].
Turning to `C[C@@H]1CC(=O)NN=C1c1ccc(-c2cncnc2)cc1`, the IC50 in assay [1] is > 10 µM (inactive); in assay [2], more than 10 µM; in assay [3], more than 10 µM.
Take `CCN1N=C(c2ccc(N(CC)CC)cc2)[C@H](C)CC1=O`: the IC50 is > 10 µM (inactive) in assay [1], more than 10 µM in assay [2] and more than 10 µM in assay [3].
